In patent US20220326218A1, “COMPOSITION AND METHOD FOR INHIBITING BORC COMPLEX TO TREAT CANCERS WITH NF1 DEFICIENCY AND DYSREGULATED RAS SIGNALING” (THE TRUSTEES OF DARTMOUTH COLLEGE, priority 2019, published 2022):

Tests used:
erg6Δira2Δ yeast = test: Yeast dose response curves, erg6Δira2Δ strain; type: cell-based, Saccharomyces cerevisiae; conditions: 30° C., 18 h, 100 μM to 0.039 μM, normalized to DMSO
Procedure: S. cerevisiae strains were plated at an OD600 of 0.05 in 96-well plates (Falcon) and treated with SC complete containing compound starting at 100 μM, followed by 2-fold serial dilutions to generate a 10-point range of concentrations normalized with DMSO; one row was treated with DMSO as a control. Yeast were incubated for 18 h. To process, the optical density was read using a Spectramax M2 (Molecular Devices) at a wavelength of 600 nm and normalized to DMSO. Each experiment was repeated 2-3 times with 4 technical replicates per experiment.
A high-throughput screen in Saccharomyces cerevisiae lacking a yeast homologue of NF1, IRA2 (ira2Δ) was developed and carried out to identify tool compounds that elicited synthetic lethality with NF1 loss (15). ira2Δ yeast have increased RAS-GTP, which results in increased MAPK and PKA signaling analogous to the pathways that are activated in NF1-deficient Schwann cells (17). […]
More than 5,100 structurally diverse compounds selected from and representative of a >340,000-compound library were screened. […] To determine whether Y102 was also effective in human tumor cells, the efficacy of Y102 was evaluated in two NF1-deficient human cancer cell line models of glioblastoma, U87-MG and U251-MG, and an NF1-deficient Neurofibromatosis type 1-associated MPNST cell line sNF96.2. […]

cleaved caspase-3 = test: Immunofluorescence staining for cleaved caspase-3; type: cell-based, human; conditions: U87-MG, 2 μM, 48 h
Procedure: (§1) U87-MG cells were plated at a concentration of 50,000 cells/well onto precoated poly-D-lysine (PDL) coverslips (Neuvitro) in 24-well plates (Falcon) and allowed to adhere overnight. Medium was removed and replaced with treatment-laced media normalized to DMSO, and cells were treated for the indicated timepoints. At the time of collection, cells were washed with PBS and fixed with 4% paraformaldehyde without methanol (EMS) or 100% methanol (Fischer). Coverslips were washed with Tween20-containing PBS (PBST; Fischer). Following permeabilization with 0.5% Triton X-100 in PBS (Fischer), coverslips were blocked for 1 h at room temperature in IF Buffer (0.05% azide, 0.2% Triton X-100, 2% Normal Goat Serum or, for 8-OHG, Normal Donkey Serum). The following primary antibodies were used for 1 hour at room temperature unless specified: AlexaFluor 488 pre-conjugated anti-γ-H2AX (N1-431) mouse monoclonal (30 minutes; BD Biosciences), anti-cleaved caspase 3 (Asp175) rabbit polyclonal (Cell Signaling), anti-SQSTM1/p62 (D-3) mouse monoclonal (Santa Cruz), anti-8-Hydroxyguanosine goat polyclonal (1:200; Millipore), anti-LAMP1 (D4O1S) mouse monoclonal (O/N at 4° C.; Cell Signaling), anti-BNIP3L/Nix (D4R4B) rabbit monoclonal (O/N at 4° C.; Cell Signaling), anti-FLAG (M2) mouse monoclonal (2 hours at 37° C.; Sigma-Aldrich). […]

BNIP3L/Nix = test: Western immunoblotting of BNIP3L/Nix; type: cell-based, human; conditions: U87-MG, 2 μM, 24 h, 20 μM QVD pre-treatment
Procedure: U87-MG cells were plated at 500,000 cells/well in 6-well plates and allowed to adhere overnight (Falcon). Medium was removed and replaced with fresh medium containing drugs or compounds for the indicated timepoints. Cells were collected after treatment by washing with PBS, harvested with trypsin plus agitation to detach cells, pelleted in a centrifuge and resuspended in PBS to wash. Cells were transferred to 1.5 mL microcentrifuge tubes, pelleted, and resuspended in RIPA lysis buffer (50 mM Tris pH 8.0, 150 mM NaCl, 1% nonidet P40, 0.5% sodium deoxycholate, and 0.05% SDS) containing 1 mM NaVO4, 1 mM NaF, 1 mM phenylmethylsulfonyl fluoride, 0.1 μg/mL antipain, 1 μM aprotinin, 100 μM benzamidine HCl, 0.1 μg/mL leupeptin, 0.1 μg/mL pepstatin, and 0.1 μg/mL soybean trypsin inhibitor. Protein was quantified using a BCA assay kit (Pierce). 50 μg of protein was prepared in 1× Laemmli sample buffer (50 mM Tris pH 6.8, 0.02% w/v bromophenol blue, 2% w/v SDS, 10% v/v glycerol, 1% v/v beta-mercaptoethanol, 12.5 mM EDTA) and separated by SDS-PAGE on a 4-15% polyacrylamide gradient gel (Bio-Rad). […]

U87-MG cells = test: β-Galactosidase senescence assay; type: cell-based, human; conditions: 2 μM, 72 h
Procedure: U87-MG cells were plated at 100,000 cells/well and allowed to adhere overnight. Medium was removed and replaced with medium containing DMSO, 2 μM Y102, or 100 nM Doxorubicin for a total of 72 hours. Cells were collected and stained for β-galactosidase using the Senescence β-Galactosidase Staining Kit (Cell Signaling). 100 cells were counted per condition; graph represents results from triplicate experiments.

p21 = test: Immunofluorescence of p21 expression and nucleus size; type: cell-based, human; conditions: U87-MG, 2 μM, 24 h
Procedure: as §1

SMILES: Cn1cnnc1S/C=C/C(=O)c1ccc(F)cc1 [Y102]
- effect on growth of erg6Δira2Δ yeast (OD600) (erg6Δira2Δ yeast): inhibitory effect
- amount of cleaved caspase-3 versus vehicle control (cleaved caspase-3): No difference
- BNIP3L/Nix protein levels versus DMSO (BNIP3L/Nix): little difference
- senescence (senescence-associated β-galactosidase) (U87-MG cells): no indication
- nucleus size (p21): increase
- p21 expression (p21): increase
